Results from PubChem BioAssay AID1963982 (Molecular Pharmacology Branch, DTP, NCI, 2024).
Several values for one entry are separate records, joined by “and”; a condition that tells them apart may be missing. Identical values can stand only once. One block for each molecule: values may come before it.

System: 313798-341-R-J2-PDC spheroids, viability
Test: Anticancer human tumor 313798-341-R-J2-PDC patient-derived cervical squamous cell carcinoma cell line growth inhibition [PI3K]
Conditions: spheroids with HUVEC and MSC; for viability, T/C: stronger effect = lower value
How it was run: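 We assembled tumor spheroids that included a stromal compartment of HUVEC and MSCs, then exposed them to targeted agents alone and together with PI3K pathway inhibitors. Concentration series descended by half-log from clinically achievable Cmax levels. Viability served as the endpoint.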

[1] = curve of first compound, second compound 0.0316 µM
[2] = curve of first compound, second compound 0.1 µM
[3] = curve of first compound, second compound 0.316 µM
[4] = curve of first compound, second compound 1 µM
[5] = curve of first compound, second compound 3.16 µM
[6] = curve of first compound, second compound 10 µM
[7] = second compound 0.0316 µM, first compound 0.0316 µM
[8] = second compound 0.0316 µM, first compound 0.1 µM
[9] = second compound 0.0316 µM, first compound 0.316 µM
[10] = second compound 0.0316 µM, first compound 1 µM
[11] = second compound 0.0316 µM, first compound 3.16 µM
[12] = second compound 0.0316 µM, first compound 10 µM
[13] = second compound 0.1 µM, first compound 0.0316 µM
[14] = second compound 0.1 µM, first compound 0.1 µM
[15] = second compound 0.1 µM, first compound 0.316 µM
[16] = second compound 0.1 µM, first compound 1 µM
[17] = second compound 0.1 µM, first compound 3.16 µM
[18] = second compound 0.1 µM, first compound 10 µM
[19] = second compound 0.316 µM, first compound 0.0316 µM
[20] = second compound 0.316 µM, first compound 0.1 µM
[21] = second compound 0.316 µM, first compound 0.316 µM
[22] = second compound 0.316 µM, first compound 1 µM
[23] = second compound 0.316 µM, first compound 3.16 µM
[24] = second compound 0.316 µM, first compound 10 µM
[25] = second compound 1 µM, first compound 0.0316 µM
[26] = second compound 1 µM, first compound 0.1 µM
[27] = second compound 1 µM, first compound 0.316 µM
[28] = second compound 1 µM, first compound 1 µM
[29] = second compound 1 µM, first compound 3.16 µM
[30] = second compound 1 µM, first compound 10 µM
[31] = second compound 3.16 µM, first compound 0.0316 µM
[32] = second compound 3.16 µM, first compound 0.1 µM
[33] = second compound 3.16 µM, first compound 0.316 µM
[34] = second compound 3.16 µM, first compound 1 µM
[35] = second compound 3.16 µM, first compound 3.16 µM
[36] = second compound 3.16 µM, first compound 10 µM
[37] = second compound 10 µM, first compound 0.0316 µM
[38] = second compound 10 µM, first compound 0.1 µM
[39] = second compound 10 µM, first compound 0.316 µM
[40] = second compound 10 µM, first compound 1 µM
[41] = second compound 10 µM, first compound 3.16 µM
[42] = second compound 10 µM, first compound 10 µM
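Further: spheroids exposed to compounds for seven days.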
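Wherever viability, T/C is given: 100% = DMSO vehicle control viability.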

SMILES: CC(C)n1nc(-c2ccc3oc(N)nc3c2)c2c(N)ncnc21
viability, T/C (compound 0.000316 µM): 99% [middle of 4 runs] | viability, T/C (compound 0.001 µM): 98.2% [middle of 4 runs] | viability, T/C (compound 0.00316 µM): 101% [middle of 4 runs] | viability, T/C (compound 0.01 µM): 86.7% [middle of 4 runs] | viability, T/C (compound 0.0316 µM): 77.7% [middle of 4 runs] | viability, T/C (compound 0.1 µM): 38.6% (2×) and 36.7% and 38.7% | IC50 (curve of compound): 71.3 nM [middle of 4 runs]

SMILES: COc1c(OCCCN2CCOCC2)ccc2c3n(c(=NC(=O)c4cnc(N)nc4)nc12)CCN3
viability, T/C (compound 0.00316 µM): 101% [middle of 7 runs] | viability, T/C (compound 0.01 µM): 102% [middle of 7 runs] | viability, T/C (compound 0.0316 µM): 84.5% [middle of 7 runs] | viability, T/C (compound 0.1 µM): 42.1% [middle of 7 runs] | viability, T/C (compound 0.316 µM): 14.9% [middle of 7 runs] | viability, T/C (compound 1 µM): 11.9% [middle of 7 runs] | IC50 (compound alone, run of 04/25/2023): 80.2 nM [middle of 7 runs]

More lines, main results first:

IC50 [1]: 5.85 µM | IC50 [2]: 5.6 µM | IC50 [3]: 5.65 µM | IC50 [4]: 4.52 µM | IC50 [5]: 3.14 µM | IC50 [6]: < 0.0316 µM
SMILES: CCCS(=O)(=O)Nc1ccc(F)c(C(=O)c2c[nH]c3ncc(-c4ccc(Cl)cc4)cc23)c1F + Cc1nc(NC(=O)N2CCCC2C(N)=O)sc1-c1ccnc(C(C)(C)C(F)(F)F)c1
viability, T/C [7]: 110% | viability, T/C [8]: 92% | viability, T/C [9]: 93.7% | viability, T/C [10]: 103% | viability, T/C [11]: 98% | viability, T/C [12]: 8.19% | viability, T/C [13]: 100% | viability, T/C [14]: 105% | viability, T/C [15]: 98.7% | viability, T/C [16]: 106% | viability, T/C [17]: 90.7% | viability, T/C [18]: 8.86% | viability, T/C [19]: 99.6% | viability, T/C [20]: 111% | viability, T/C [21]: 90.8% | viability, T/C [22]: 105% | viability, T/C [23]: 89.6% | viability, T/C [24]: 10.9% | viability, T/C [25]: 93.2% | viability, T/C [26]: 90.1% | viability, T/C [27]: 88.7% | viability, T/C [28]: 83.9% | viability, T/C [29]: 70.7% | viability, T/C [30]: 6.27% | viability, T/C [31]: 62% | viability, T/C [32]: 56.8% | viability, T/C [33]: 56.5% | viability, T/C [34]: 58.7% | viability, T/C [35]: 49.8% | viability, T/C [36]: 6.48% | viability, T/C [37]: 33.5% | viability, T/C [38]: 32.5% | viability, T/C [39]: 38.7% | viability, T/C [40]: 36.4% | viability, T/C [41]: 31.2% | viability, T/C [42]: 5.01%

IC50 [1]: > 10 µM | IC50 [2]: > 10 µM | IC50 [3]: > 10 µM | IC50 [4]: > 10 µM | IC50 [5]: > 10 µM | IC50 [6]: < 0.0316 µM
SMILES: CNC(=O)c1ccc(N2C(=S)N(c3ccc(C#N)c(C(F)(F)F)c3)C(=O)C2(C)C)cc1F + Cc1nc(NC(=O)N2CCCC2C(N)=O)sc1-c1ccnc(C(C)(C)C(F)(F)F)c1
viability, T/C [7]: 97.5% | viability, T/C [8]: 104% | viability, T/C [9]: 92.3% | viability, T/C [10]: 107% | viability, T/C [11]: 119% | viability, T/C [12]: 88.4% | viability, T/C [13]: 116% | viability, T/C [14]: 101% | viability, T/C [15]: 99.5% | viability, T/C [16]: 105% | viability, T/C [17]: 111% | viability, T/C [18]: 114% | viability, T/C [19]: 104% | viability, T/C [20]: 104% | viability, T/C [21]: 107% | viability, T/C [22]: 102% | viability, T/C [23]: 117% | viability, T/C [24]: 111% | viability, T/C [25]: 94.3% | viability, T/C [26]: 89.4% | viability, T/C [27]: 96.2% | viability, T/C [28]: 96% | viability, T/C [29]: 90.3% | viability, T/C [30]: 90.4% | viability, T/C [31]: 67.4% | viability, T/C [32]: 64.7% | viability, T/C [33]: 65.9% | viability, T/C [34]: 64.9% | viability, T/C [35]: 61.5% | viability, T/C [36]: 54.5% | viability, T/C [37]: 36% | viability, T/C [38]: 39.3% | viability, T/C [39]: 38.5% | viability, T/C [40]: 36.8% | viability, T/C [41]: 35.5% | viability, T/C [42]: 33%

IC50 [1]: > 10 µM | IC50 [2]: > 10 µM | IC50 [3]: > 10 µM | IC50 [4]: > 10 µM | IC50 [5]: > 10 µM | IC50 [6]: > 10 µM
SMILES: C#Cc1c(F)ccc2cc(O)cc(-c3ncc4c(N5CC6CCC(C5)N6)nc(OCC56CCCN5CC(F)C6)nc4c3F)c12 (stereo not given) + CC(Nc1ncnc2nc[nH]c12)c1cc2cccc(Cl)c2c(=O)n1-c1ccccc1
viability, T/C [7]: 95.5% | viability, T/C [8]: 95.7% | viability, T/C [9]: 99% | viability, T/C [10]: 101% | viability, T/C [11]: 101% | viability, T/C [12]: 96.9% | viability, T/C [13]: 92.5% | viability, T/C [14]: 95.8% | viability, T/C [15]: 93.2% | viability, T/C [16]: 98.3% | viability, T/C [17]: 102% | viability, T/C [18]: 102% | viability, T/C [19]: 95.3% | viability, T/C [20]: 104% | viability, T/C [21]: 90.9% | viability, T/C [22]: 93.9% | viability, T/C [23]: 99.1% | viability, T/C [24]: 100% | viability, T/C [25]: 114% | viability, T/C [26]: 99.4% | viability, T/C [27]: 90.3% | viability, T/C [28]: 94.6% | viability, T/C [29]: 104% | viability, T/C [30]: 107% | viability, T/C [31]: 110% | viability, T/C [32]: 97.2% | viability, T/C [33]: 94.3% | viability, T/C [34]: 101% | viability, T/C [35]: 90.4% | viability, T/C [36]: 99.9% | viability, T/C [37]: 93.2% | viability, T/C [38]: 83.9% | viability, T/C [39]: 81% | viability, T/C [40]: 81.2% | viability, T/C [41]: 85.1% | viability, T/C [42]: 81.9%
